Source: ChEMBL document CHEMBL1201862, “PubChem BioAssay data set” (2004)
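48-hour exposure; five concentrations; linearly interpolated endpoints. GI50 is the concentration that inhibits growth by half.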 Activity calls are given as the source filed them. Rule as the data show it: active = GI50 up to about 1.1 µM and inactive = higher.

What was measured:
Assay in all cases: NCI-60 cell line screen, 48 h
COLO 205 = test system: COLO 205
HCC 2998 = test system: HCC 2998
MOLT-4 = test system: MOLT-4
RXF 393 = test system: RXF 393
SR = test system: SR
OVCAR-8 = test system: OVCAR-8
UACC-62 = test system: UACC-62
SN12C = test system: SN12C
DMS-114 = test system: DMS-114
OVCAR-4 = test system: OVCAR-4
LOX IMVI = test system: LOX IMVI
LXFL 529 = test system: LXFL 529
NCI-H522 = test system: NCI-H522
SNB-75 = test system: SNB-75
SF-268 = test system: SF-268
CAKI-1 = test system: CAKI-1
NCI-H460 = test system: NCI-H460
SNB-19 = test system: SNB-19
786-0 = test system: 786-0
TK-10 = test system: TK-10
DMS-273 = test system: DMS-273
RXF 631 = test system: RXF 631
HCT-116 = test system: HCT-116
K562 = test system: K562
HOP-62 = test system: HOP-62
UO-31 = test system: UO-31
HOP-18 = test system: HOP-18
SK-MEL-2 = test system: SK-MEL-2
KM12 = test system: KM12
M14 = test system: M14
OVCAR-3 = test system: OVCAR-3
SW-620 = test system: SW-620
KM-20L2 = test system: KM-20L2
SK-MEL-28 = test system: SK-MEL-28
SF-539 = test system: SF-539
SF-295 = test system: SF-295
NCI-H226 = test system: NCI-H226
SK-MEL-5 = test system: SK-MEL-5
A498 = test system: A498
HT-29 = test system: HT-29
HCT-15 = test system: HCT-15
U-251 = test system: U-251
Malme-3M = test system: Malme-3M
XF498 = test system: XF498
IGROV-1 = test system: IGROV-1
EKVX = test system: EKVX
OVCAR-5 = test system: OVCAR-5
NCI-H23 = test system: NCI-H23
A549 = test system: A549
RPMI-8226 = test system: RPMI-8226
DLD-1 = test system: DLD-1
UACC-257 = test system: UACC-257
ACHN = test system: ACHN
SNB-78 = test system: SNB-78

Which GI50 (COLO 205) does the source give for `CO[C@@]1(c2ccccc2)O[C@H]2OCCC2[C@H]1c1ccc(Cl)cc1` (some centres undefined) here?
The GI50 was 20 µM (inactive).

And the GI50 (HCC 2998)?
The GI50 was 35.3 µM (inactive).

What about the GI50 (MOLT-4) of the same molecule?
Its GI50 is 17.9 µM (inactive).

And the GI50 (RXF 393)?
Its GI50 is 17.7 µM (inactive).

What about the GI50 (SR) of the same molecule?
Its GI50 is 29 µM (inactive).

And the GI50 (OVCAR-8)?
Its GI50 is 33.7 µM (inactive).

And the GI50 (UACC-62)?
The GI50 was 34.2 µM (inactive).

And the GI50 (SN12C)?
The GI50 was 51.5 µM (inactive).

What about the GI50 (DMS-114) of the same molecule?
The GI50 was 31.8 µM (inactive).

And the GI50 (OVCAR-4)?
The GI50 was 26.6 µM (inactive).

And the GI50 (LOX IMVI)?
The GI50 was 32.4 µM (inactive).

What about the GI50 (LXFL 529) of the same molecule?
The GI50 was 27.9 µM (inactive).

What about the GI50 (NCI-H522) of the same molecule?
Its GI50 is 16.4 µM (inactive).

What about the GI50 (SNB-75) of the same molecule?
Its GI50 is 28.8 µM (inactive).

What about the GI50 (SF-268) of the same molecule?
The GI50 was 56.9 µM (inactive).

And the GI50 (CAKI-1)?
Its GI50 is 28.8 µM (inactive).

What about the GI50 (NCI-H460) of the same molecule?
The GI50 was 23.2 µM (inactive).

What about the GI50 (SNB-19) of the same molecule?
The GI50 was 40.1 µM (inactive).

What about the GI50 (786-0) of the same molecule?
Its GI50 is 32 µM (inactive).

And the GI50 (TK-10)?
Its GI50 is 40.8 µM (inactive).

What about the GI50 (DMS-273) of the same molecule?
Its GI50 is 39.5 µM (inactive).

What about the GI50 (RXF 631) of the same molecule?
Its GI50 is 29.4 µM (inactive).

And the GI50 (HCT-116)?
Its GI50 is 27.6 µM (inactive).

And the GI50 (K562)?
Its GI50 is 29.9 µM (inactive).

What about the GI50 (HOP-62) of the same molecule?
Its GI50 is 40.8 µM (inactive).

What about the GI50 (UO-31) of the same molecule?
The GI50 was 25.4 µM (inactive).

And the GI50 (HOP-18)?
The GI50 was 22.9 µM (inactive).

What about the GI50 (SK-MEL-2) of the same molecule?
Its GI50 is 31.8 µM (inactive).

And the GI50 (KM12)?
The GI50 was 47 µM (inactive).

What about the GI50 (M14) of the same molecule?
Its GI50 is 37.6 µM (inactive).

And the GI50 (OVCAR-3)?
Its GI50 is 16.5 µM (inactive).

What about the GI50 (SW-620) of the same molecule?
The GI50 was 32.7 µM (inactive).

What about the GI50 (KM-20L2) of the same molecule?
Its GI50 is 32.1 µM (inactive).

And the GI50 (SK-MEL-28)?
Its GI50 is 63.8 µM (inactive).

And the GI50 (SF-539)?
Its GI50 is 51.6 µM (inactive).

And the GI50 (SF-295)?
The GI50 was 21.3 µM (inactive).

And the GI50 (NCI-H226)?
Its GI50 is 33.4 µM (inactive).

What about the GI50 (SK-MEL-5) of the same molecule?
Its GI50 is 17 µM (inactive).

And the GI50 (A498)?
Its GI50 is 25.5 µM (inactive).

And the GI50 (HT-29)?
The GI50 was 20.3 µM (inactive).

And the GI50 (HCT-15)?
Its GI50 is 36.1 µM.

And the GI50 (U-251)?
The GI50 was 28.2 µM (inactive).

What about the GI50 (Malme-3M) of the same molecule?
The GI50 was 28.5 µM (inactive).

What about the GI50 (XF498) of the same molecule?
Its GI50 is 25 µM (inactive).

What about the GI50 (IGROV-1) of the same molecule?
Its GI50 is 97.7 µM (inactive).

What about the GI50 (EKVX) of the same molecule?
The GI50 was 24.7 µM (inactive).

What about the GI50 (OVCAR-5) of the same molecule?
Its GI50 is 29.1 µM (inactive).

And the GI50 (NCI-H23)?
Its GI50 is 30.4 µM (inactive).

What about the GI50 (A549) of the same molecule?
Its GI50 is 32.7 µM (inactive).

And the GI50 (RPMI-8226)?
Its GI50 is 34 µM (inactive).

And the GI50 (DLD-1)?
The GI50 was 37.7 µM (inactive).

And the GI50 (UACC-257)?
The GI50 was 22 µM (inactive).

And the GI50 (ACHN)?
Its GI50 is 34 µM (inactive).

And the GI50 (SNB-78)?
Its GI50 is 45.1 µM (inactive).
